# Results published in ChEMBL document CHEMBL3244355, “Quinolone antimicrobial agents. 2. Methylenedioxy positional isomers of oxolinic acid” (1979).
# How the values were obtained:
# Serratia marcescens = assay: Antimicrobial activity against Serratia marcescens ATCC 4003 assessed as growth inhibition by agar dilution-streak method; assay type: functional
# Escherichia coli = assay: Antimicrobial activity against Escherichia coli ATCC 26 assessed as growth inhibition by agar dilution-streak method; assay type: functional
# Enterococcus faecalis = assay: Antimicrobial activity against Streptococcus faecalis ATCC 8043 assessed as growth inhibition by agar dilution-streak method; assay type: functional
# Proteus vulgaris = assay: Antimicrobial activity against Proteus vulgaris ATCC 6897 assessed as growth inhibition by agar dilution-streak method; assay type: functional
# Salmonella typhi = assay: Antimicrobial activity against Salmonella typhi ATCC 9992 assessed as growth inhibition by agar dilution-streak method; assay type: functional, Salmonella enterica subsp. enterica serovar Typhi; settings: Salmonella enterica
# Shigella sonnei = assay: Antimicrobial activity against Shigella sonnei ATCC 9290 assessed as growth inhibition by agar dilution-streak method; assay type: functional
# Proteus mirabilis = assay: Antimicrobial activity against Proteus mirabilis Finland 9 assessed as growth inhibition by agar dilution-streak method; assay type: functional
# Klebsiella pneumoniae = assay: Antimicrobial activity against Klebsiella pneumoniae ATCC 8045 assessed as growth inhibition by agar dilution-streak method; assay type: functional
# Staphylococcus aureus = assay: Antimicrobial activity against Staphylococcus aureus ATCC 6538P assessed as growth inhibition by agar dilution-streak method; assay type: functional
# Acinetobacter sp. = assay: Antimicrobial activity against Acinetobacter sp. 2347 assessed as growth inhibition by agar dilution-streak method; assay type: functional
# Pseudomonas aeruginosa = assay: Antimicrobial activity against Pseudomonas aeruginosa BMH 1 assessed as growth inhibition by agar dilution-streak method; assay type: functional
Structure (SMILES),MIC (Serratia marcescens) [µg/mL],MIC (Escherichia coli) [µg/mL],MIC (Enterococcus faecalis) [µg/mL],MIC (Proteus vulgaris) [µg/mL],MIC (Salmonella typhi) [µg/mL],MIC (Shigella sonnei) [µg/mL],MIC (Proteus mirabilis) [µg/mL],MIC (Klebsiella pneumoniae) [µg/mL],MIC (Staphylococcus aureus) [µg/mL],MIC (Acinetobacter sp.) [µg/mL],MIC (Pseudomonas aeruginosa) [µg/mL]
CCn1cc(C(=O)O)c(=O)c2c3c(ccc21)OCO3,> 100,> 100,> 100,100,> 100,> 100,> 100,25,> 100,> 100,> 100
CCn1cc(C(=O)O)c(=O)c2ccc3c(c21)OCO3,3.13,6.25,> 100,3.13,12.5,3.13,50,1.56,25,6.25,> 100
CCn1cc(C(=O)O)c(=O)c2cc3c(cc21)OCO3 [OXOLINIC ACID],0.1,0.1,25,> 0.05,0.2,0.2,0.78,> 0.05,0.78,0.4,12.5
